Experiment [1] relates to ALOMY. As to the kind of experiment: Pre-emergence action against ALOMY. It counts as in vivo, Alopecurus myosuroides. As to conditions: Alopecurus myosuroides, 504 h; dosage 320 g/ha; pre-emergence; scored visually after 3 weeks vs untreated controls; 100% = plants have died, 0% = like control plants; read-out: Pre-emergence action against ALOMY (herbicidal activity in percent). The method, boiled down:
(§1)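 Seeds sown in sandy loam in wood-fiber pots and covered with soil. Greenhouse growth; visual damage scored after 3 weeks versus untreated controls (100% = dead, 0% = like control).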

Experiment [2] concerns AVEFA. As to the kind of experiment: Pre-emergence action against AVEFA. It counts as in vivo, Avena fatua. As to conditions: Avena fatua, 504 h, dosage 320 g/ha, scored visually after 3 weeks vs untreated controls, read-out: Pre-emergence action against AVEFA (herbicidal activity). In outline:
as §1

The test system of experiment [3] is CYPES. As to the kind of experiment: Pre-emergence action against CYPES. Type of experiment: in vivo, Cyperus esculentus. As to conditions: Cyperus esculentus, 504 h; pre-emergence, dosage 320 g/ha, scored visually after 3 weeks vs untreated controls; read-out: Pre-emergence action against CYPES (herbicidal activity). In outline: as §1
In experiment [4] the test system is ECHCG. As to the kind of experiment: Pre-emergence action against ECHCG. Type of experiment: in vivo, Echinochloa crus-galli. As to conditions: Echinochloa crus-galli, 504 h; pre-emergence, dosage 320 g/ha, scored visually after 3 weeks vs untreated controls; read-out: Pre-emergence action against ECHCG (herbicidal activity). In outline:
as §1

Experiment [5] relates to SETVI. The experiment in a line: Pre-emergence action against SETVI. It counts as in vivo, Setaria viridis. To be noted: Setaria viridis, 504 h; pre-emergence, dosage 320 g/ha, scored visually after 3 weeks vs untreated controls; read-out: SETVI (Table B8, pre-emergence herbicidal activity). The method, boiled down: as §1
Experiment [6] relates to ABUTH. As to the kind of experiment: Pre-emergence action against ABUTH. Type of experiment: in vivo, Abutilon theophrasti. As to conditions: Abutilon theophrasti, 504 h; pre-emergence, dosage 320 g/ha, scored visually after 3 weeks vs untreated controls; read-out: Pre-emergence action against ABUTH (herbicidal activity). In outline:
as §1

Experiment [7] deals with AMARE. As to the kind of experiment: Pre-emergence action against AMARE. Type of experiment: in vivo, Amaranthus retroflexus. As to conditions: Amaranthus retroflexus, 504 h; pre-emergence, dosage 320 g/ha, scored visually after 3 weeks vs untreated controls; read-out: Pre-emergence action against AMARE (herbicidal activity). In outline:
as §1

In experiment [8] the test system is MATIN. As to the kind of experiment: Pre-emergence action against MATIN. It counts as in vivo, Matricaria inodora. To be noted: Tripleurospermum inodorum, 504 h; Dosage 320 g/ha, pre-emergence. The method, boiled down:
as §1

The test system of experiment [9] is PHBPU. As to the kind of experiment: Pre-emergence action against PHBPU. Type of experiment: in vivo, Pharbitis purpurea. As to conditions: Ipomoea purpurea, 504 h; Dosage 320 g/ha, pre-emergence. In outline:
as §1

Experiment [10] deals with VIOTR. As to the kind of experiment: Pre-emergence action against VIOTR. To be noted: Viola tricolor, 504 h; Dosage 320 g/ha, pre-emergence. It counts as in vivo, Viola tricolor. In outline:
as §1

Experiment [11] relates to ALOMY. The experiment in a line: Post-emergence action against ALOMY. It counts as in vivo, Alopecurus myosuroides. As to conditions: Alopecurus myosuroides, 504 h; Dosage 80 g/ha, post-emergence. In outline: (§2)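 Post-emergence foliar spray on greenhouse plants at the one-leaf stage, using wettable-powder or emulsion-concentrate formulations in water (600 to […], plus 0.2% wetting agent). Damage scored by eye roughly 3 weeks later against untreated plants: 0% = like control, 100% = dead.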

Experiment [12] deals with AVEFA. As to the kind of experiment: Post-emergence action against AVEFA. Type of experiment: in vivo, Avena fatua. To be noted: Avena fatua, 504 h; post-emergence, dosage 80 g/ha, visual assessment about 3 weeks after treatment vs untreated controls; read-out: Post-emergence action against AVEFA (herbicidal action in percent). The method, boiled down: as §2
Experiment [13] concerns CYPES. The experiment in a line: Post-emergence action against CYPES. To be noted: Cyperus esculentus, 504 h; post-emergence, dosage 80 g/ha, visual assessment about 3 weeks after treatment vs untreated controls; read-out: Post-emergence action against CYPES (herbicidal action in percent). It counts as in vivo, Cyperus esculentus. The method, boiled down:
as §2

The subject of experiment [14] is ECHCG. The experiment in a line: Post-emergence action against ECHCG. Type of experiment: in vivo, Echinochloa crus-galli. To be noted: Echinochloa crus-galli, 504 h; post-emergence, dosage 80 g/ha, visual assessment about 3 weeks after treatment vs untreated controls; read-out: Post-emergence action against ECHCG (herbicidal action in percent). In outline:
as §2

The subject of experiment [15] is LOLMU. As to the kind of experiment: Post-emergence action against LOLMU. Type of experiment: in vivo, Lolium multiflorum. As to conditions: Lolium multiflorum, 504 h, dosage 80 g/ha, visual assessment about 3 weeks after treatment vs untreated controls, read-out: Post-emergence action against LOLMU (herbicidal action in percent). How it is done: Seeds of monocotyledonous and dicotyledonous weed and crop plants are laid out in sandy loam soil in wood-fiber pots, covered with soil and cultivated in a greenhouse under good growth conditions. 2 to 3 weeks after sowing, the test plants are treated at the one-leaf stage. The compounds of the invention, formulated in the form of wettable powders (WP) or as emulsion concentrates (EC), are then sprayed onto the green parts of the plants in the form of an aqueous suspension or emulsion at a water application rate equating to […], with addition of 0.2% wetting agent. After the test plants have been left to stand in the greenhouse under optimal growth conditions for about 3 weeks, the action of the preparations is assessed visually in comparison to untreated controls (herbicidal action in percent (%): 100% activity=the plants have died, 0% activity=like control plants). […] At the same time, inventive compounds leave Gramineae crops such as barley, wheat, rye, millet/Sorghum, corn or rice virtually undamaged when applied post-emergence, even at high active ingredient dosages. In addition, some substances are also harmless to dicotyledonous crops such as soya, cotton, oilseed rape, sugar beet or potatoes. Some of the compounds according to the invention have high selectivity and are therefore suitable for controlling unwanted vegetation in agricultural crops by the post-emergence method. The data of Tables B18 to B34 below illustrate, in an exemplary manner, the […] herbicidal action of the compounds according to the invention, the herbicidal activity being stated in percent.

Experiment [16] has as its system SETVI. As to the kind of experiment: Post-emergence action against SETVI. Type of experiment: in vivo, Setaria viridis. To be noted: Setaria viridis, 504 h; post-emergence, dosage 80 g/ha, visual assessment about 3 weeks after treatment vs untreated controls; read-out: Post-emergence action against SETVI (herbicidal action in percent). The method, boiled down:
as §2

The test system of experiment [17] is ABUTH. As to the kind of experiment: Post-emergence action against ABUTH. Type of experiment: in vivo, Abutilon theophrasti. To be noted: Abutilon theophrasti, 504 h; post-emergence, dosage 80 g/ha, visual assessment about 3 weeks after treatment vs untreated controls; read-out: Post-emergence action against ABUTH (herbicidal action in percent). In outline: as §2

Experiment [18] deals with AMARE. The experiment in a line: Post-emergence action against AMARE. To be noted: Amaranthus retroflexus, 504 h; post-emergence, dosage 80 g/ha, visual assessment about 3 weeks after treatment vs untreated controls; read-out: Post-emergence action against AMARE (herbicidal action in percent). It counts as in vivo, Amaranthus retroflexus. The method, boiled down:
as §2

In experiment [19] the test system is MATIN. The experiment in a line: Post-emergence action against MATIN. It counts as in vivo, Matricaria inodora. To be noted: Tripleurospermum inodorum, 504 h; post-emergence, dosage 80 g/ha, visual assessment about 3 weeks after treatment vs untreated controls; read-out: Post-emergence action against MATIN (herbicidal action in percent). The method, boiled down:
as §2

The subject of experiment [20] is PHBPU. The experiment in a line: Post-emergence action against PHBPU. It counts as in vivo, Pharbitis purpurea. As to conditions: Ipomoea purpurea, 504 h; post-emergence, dosage 80 g/ha. In outline:
as §2

The test system of experiment [21] is STEME. The experiment in a line: Post-emergence action against STEME. Type of experiment: in vivo, Stellaria media. To be noted: Stellaria media, 504 h; post-emergence, dosage 80 g/ha. In outline:
as §2

The subject of experiment [22] is VIOTR. The experiment in a line: Post-emergence action against VIOTR. Type of experiment: in vivo, Viola tricolor. As to conditions: Viola tricolor, 504 h; post-emergence, dosage 80 g/ha. In outline:
as §2

The subject of experiment [23] is VERPE. As to the kind of experiment: Post-emergence action against VERPE. Type of experiment: in vivo, Veronica persica. As to conditions: Veronica persica, 504 h, dosage 80 g/ha. The method, boiled down:
as §2

We go through 1 compound from patent publication US11051515B2, “3-acyl-benzamides and their use as herbicides” (Bayer Aktiengesellschaft, priority 2017, dated 2021).

Turning to `Cc1c(C(=O)Nc2nnnn2C)ccc(C(F)(F)F)c1C(=O)C1CC1` [1-18, 3-(cyclopropylcarbonyl)-2-methyl-N-(1-methyl-1H-tetrazol-5-yl)-4-(trifluoromethyl)benzamide], the pest or weed control at 320 g/ha in experiment [1] turned out to be 100%; in experiment [2], 100%; in experiment [3] it was 90%; in experiment [4], 100%; in [5] it was 100%; in [6] it was 100%. Also, the pest or weed control at 320 g/ha in experiment [7] is 100%; in [8], 100%; in experiment [9], 90%; in experiment [10], 100%. The pest or weed control at 80 g/ha came out at 100% in experiment [11]; 100% in [12]; 90% in experiment [13]; 90% in [14]; 90% in experiment [15]; 100% in [16]. Also, the pest or weed control at 80 g/ha in [17] was 80%; in [18], 90%; in experiment [19], 100%; in experiment [20] it was 100%; in experiment [21], 100%; in experiment [22], 100%. Moreover, the pest or weed control at 80 g/ha in experiment [23] was 100%.
